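How tested: cells in 96-well plates exposed to compound for 48 hours at five concentrations. GI50 = concentration required for 50% inhibition of growth.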 Activity calls are given as the source filed them. Cut-off read from the data, not from the text of the source: active = GI50 up to about 1.1 µM and inactive = higher.
How the values were obtained:
Assay in all cases: NCI-60 cell line screen, 48 h
OVCAR-5 = system: OVCAR-5
SK-MEL-28 = system: SK-MEL-28
SK-OV-3 = system: SK-OV-3
MCF7 = system: MCF7
Hs-578T = system: Hs-578T
786-0 = system: 786-0
OVCAR-3 = system: OVCAR-3
M14 = system: M14
EKVX = system: EKVX
RXF 393 = system: RXF 393
NCI-H522 = system: NCI-H522
IGROV-1 = system: IGROV-1
TK-10 = system: TK-10
ACHN = system: ACHN
SF-295 = system: SF-295
MDA-MB-435 = system: MDA-MB-435
SR = system: SR
Malme-3M = system: Malme-3M
A549 = system: A549
UACC-257 = system: UACC-257

Structure (SMILES)	GI50 (OVCAR-5)	GI50 (SK-MEL-28)	GI50 (SK-OV-3)	GI50 (MCF7)	GI50 (Hs-578T)	GI50 (786-0)	GI50 (OVCAR-3)	GI50 (M14)	GI50 (EKVX)	GI50 (RXF 393)	GI50 (NCI-H522)	GI50 (IGROV-1)	GI50 (TK-10)	GI50 (ACHN)	GI50 (SF-295)	GI50 (MDA-MB-435)	GI50 (SR)	GI50 (Malme-3M)	GI50 (A549)	GI50 (UACC-257)
CCOP(=O)(OCC)/C(C#N)=C/c1cccn1N(C)C	> 100 µM (inactive)	> 100 µM (inactive)	> 100 µM (inactive)	> 100 µM (inactive)	> 100 µM (inactive)	> 100 µM (inactive)	> 100 µM (inactive)	> 100 µM (inactive)	> 100 µM (inactive)	> 100 µM (inactive)	> 100 µM (inactive)	> 100 µM (inactive)	> 100 µM (inactive)	> 100 µM (inactive)	> 100 µM (inactive)	> 100 µM (inactive)	> 100 µM (inactive)	> 100 µM (inactive)	> 100 µM (inactive)	> 100 µM (inactive)
O=c1ssc2c1Nc1c(ssc1=O)S2	17 µM (inactive)	18.5 µM (inactive)	19.5 µM (inactive)	16.4 µM (inactive)	33.7 µM (inactive)	3.87 µM (inactive)	17.4 µM (inactive)	11.7 µM (inactive)	15.4 µM (inactive)	4.42 µM (inactive)	8.28 µM (inactive)	13.2 µM (inactive)	16 µM (inactive)	16.6 µM (inactive)	27.7 µM (inactive)	18.5 µM (inactive)	1.96 µM (inactive)	5.9 µM (inactive)	19.2 µM (inactive)	14.6 µM (inactive)
COC(=O)C(Cc1ccccc1)NC(=O)C(CCCNC(=N)N)NC(=O)OCc1ccccc1 (configuration not stated)	> 100 µM (inactive)	> 100 µM (inactive)	> 100 µM (inactive)	> 100 µM (inactive)	> 100 µM (inactive)	> 100 µM (inactive)	> 100 µM (inactive)	> 100 µM (inactive)	> 100 µM (inactive)	> 100 µM (inactive)	> 100 µM (inactive)	> 100 µM (inactive)	> 100 µM (inactive)	> 100 µM (inactive)	> 100 µM (inactive)	> 100 µM (inactive)	> 100 µM (inactive)	> 100 µM (inactive)	> 100 µM (inactive)	
C/C(CC(O)(C(F)(F)F)C(F)(F)F)=N\NC(N)=S		> 10 µM (inactive)	> 10 µM (inactive)	> 10 µM (inactive)	> 10 µM (inactive)	> 10 µM (inactive)	> 10 µM (inactive)	> 10 µM (inactive)	> 10 µM (inactive)	> 10 µM (inactive)	> 10 µM (inactive)	> 10 µM (inactive)	> 10 µM (inactive)	> 10 µM (inactive)	> 10 µM (inactive)	> 10 µM (inactive)	> 10 µM (inactive)	> 10 µM (inactive)	> 10 µM (inactive)	> 10 µM (inactive)
CN1C2CC(=O)CC1[C@@H]1OC(c3ccccc3)O[C@H]21 (some centres not stated)		> 100 µM (inactive)	> 100 µM (inactive)	> 100 µM (inactive)	> 100 µM (inactive)	> 100 µM (inactive)	> 100 µM (inactive)	> 100 µM (inactive)	> 100 µM (inactive)	> 100 µM (inactive)	> 100 µM (inactive)	> 100 µM (inactive)	> 100 µM (inactive)		> 100 µM (inactive)	> 100 µM (inactive)	> 100 µM (inactive)	> 100 µM (inactive)	> 100 µM (inactive)	> 100 µM (inactive)
COc1ccc(CNc2cc(=O)n(C)c(=O)[nH]2)cc1	> 100 µM (inactive)	> 100 µM (inactive)	> 100 µM (inactive)	> 100 µM (inactive)	> 100 µM (inactive)	> 100 µM (inactive)	> 100 µM (inactive)	> 100 µM (inactive)	> 100 µM (inactive)	35.6 µM (inactive)	> 100 µM (inactive)	> 100 µM (inactive)	> 100 µM (inactive)	> 100 µM (inactive)	> 100 µM (inactive)	> 100 µM (inactive)	> 100 µM (inactive)	> 100 µM (inactive)	> 100 µM (inactive)	> 100 µM (inactive)
C=CCN1C(=O)/C(=C/c2ccc(OC)cc2)N=C1SC/C=C/C	> 100 µM (inactive)	87.7 µM (inactive)	> 100 µM (inactive)	32.1 µM (inactive)	50.1 µM (inactive)	34.7 µM (inactive)	74.1 µM (inactive)	54.7 µM (inactive)	33.5 µM (inactive)	16.6 µM (inactive)	28.1 µM (inactive)	> 100 µM (inactive)	> 100 µM (inactive)	56.4 µM (inactive)	41.3 µM (inactive)	33.3 µM (inactive)	17.3 µM (inactive)	34.8 µM (inactive)	18.9 µM (inactive)	36.7 µM (inactive)
CC(C)(C)C(=O)CC1(O)C=C(O)C(O)(CC(=O)C(C)(C)C)O1 (configuration not stated)	> 100 µM (inactive)	31.6 µM (inactive)	29.9 µM (inactive)	24.8 µM (inactive)	35.2 µM (inactive)	4.86 µM (inactive)	59.4 µM (inactive)	15.8 µM (inactive)	61.1 µM (inactive)	1.84 µM (inactive)	20.4 µM (inactive)	7.13 µM (inactive)	82.2 µM (inactive)		48.5 µM (inactive)	41.9 µM (inactive)	4.55 µM (inactive)	86.9 µM (inactive)	61.7 µM (inactive)	42.3 µM (inactive)
O=C1C[C@@H](c2ccccc2)NCCCCN(O)CCCN1	> 100 µM (inactive)	> 100 µM (inactive)	> 100 µM (inactive)	> 100 µM (inactive)	> 100 µM (inactive)	> 100 µM (inactive)	> 100 µM (inactive)	> 100 µM (inactive)	> 100 µM (inactive)	> 100 µM (inactive)	> 100 µM (inactive)	> 100 µM (inactive)	> 100 µM (inactive)	> 100 µM (inactive)	> 100 µM (inactive)	> 100 µM (inactive)	> 10 µM (inactive)	> 100 µM (inactive)	> 100 µM (inactive)	> 100 µM (inactive)
S=C(N/N=C(/c1ccccc1)c1ccccn1)Nc1ccccc1Cl	0.0243 µM (active)	1.92 µM (inactive)	0.0266 µM (active)	< 0.01 µM (active)	2.49 µM (inactive)	< 0.018 µM (active)	< 0.0103 µM (active)	< 0.0224 µM (active)	0.0785 µM (active)	0.124 µM (active)	< 0.0446 µM (active)	< 0.0105 µM (active)	0.336 µM (active)	0.0153 µM (active)	0.356 µM (active)	0.265 µM (active)	< 0.0189 µM (active)	0.0681 µM (active)	0.0946 µM (active)	< 0.01 µM (active)
NNC(=O)c1ccccc1NC(=O)/C(=C/c1ccccc1O)NC(=O)c1ccccc1	> 100 µM (inactive)	> 100 µM (inactive)	39.7 µM (inactive)	5.07 µM (inactive)	14.7 µM (inactive)	16.3 µM (inactive)		55.6 µM (inactive)	33.6 µM (inactive)	63 µM (inactive)	13.4 µM (inactive)	14.5 µM (inactive)	> 100 µM (inactive)	17.9 µM (inactive)	44.8 µM (inactive)	57.7 µM (inactive)	0.0156 µM (active)	25.4 µM (inactive)	> 100 µM (inactive)	> 100 µM (inactive)
CCCCCCCCCCCCCCCCNC(=O)/C(O)=C/C(=O)c1ccc(C)cc1	> 10 µM (inactive)	> 10 µM (inactive)	> 10 µM (inactive)	> 10 µM (inactive)	> 10 µM (inactive)	> 10 µM (inactive)	> 10 µM (inactive)	> 10 µM (inactive)	> 10 µM (inactive)	> 10 µM (inactive)	> 10 µM (inactive)	> 10 µM (inactive)	> 10 µM (inactive)	> 10 µM (inactive)	> 10 µM (inactive)	> 10 µM (inactive)	> 10 µM (inactive)	> 10 µM (inactive)		> 10 µM (inactive)
CCNc1cc2c3c(c1)CCN3CCC2		> 10 µM (inactive)	> 10 µM (inactive)	> 10 µM (inactive)	> 10 µM (inactive)	> 10 µM (inactive)	> 10 µM (inactive)	> 10 µM (inactive)	5.86 µM (inactive)	> 10 µM (inactive)	5.98 µM (inactive)	> 10 µM (inactive)	> 10 µM (inactive)	> 10 µM (inactive)	> 10 µM (inactive)	> 10 µM (inactive)	5.32 µM (inactive)	> 10 µM (inactive)	> 10 µM (inactive)	> 10 µM (inactive)
COc1ccc(/C(=N/O)c2ccccc2-c2nc3ccccc3c(=O)n2-c2ccc(S(=O)(=O)Nc3ncccn3)cc2)cc1C	24.5 µM (inactive)	14.9 µM (inactive)	6.81 µM (inactive)	13.2 µM (inactive)	29.4 µM (inactive)	> 10 µM (inactive)	15.8 µM (inactive)	17.1 µM (inactive)	16.5 µM (inactive)	11.1 µM (inactive)	14.2 µM (inactive)	17.8 µM (inactive)	21.8 µM (inactive)	14.4 µM (inactive)	12.9 µM (inactive)	14.9 µM (inactive)	15.3 µM (inactive)	> 10 µM (inactive)	17.4 µM (inactive)	17.1 µM (inactive)

From ChEMBL document CHEMBL1201862, “PubChem BioAssay data set” (2004)
